Tests used:
Details in all cases: 72 h
Caco-2 [1] = test: cell viability relative to DMSO; higher = less toxic
Calu-3 [2] = test: as above
HepG2 [3] = test: as above
Vero E6 [4] = test: as above
U2OS [5] = test: as above
Caco-2 [6] = test: drug sensitivity score (DSS) for viability; higher = more toxic; extreme values may be limits of the assay
Calu-3 [7] = test: as above
HepG2 [8] = test: as above
Vero E6 [9] = test: as above
U2OS [10] = test: as above
Caco-2 [11] = test: relative viability EC50 (midpoint between 100% and the lowest measured viability); higher = less toxic
Calu-3 [12] = test: as above
HepG2 [13] = test: as above
Vero E6 [14] = test: as above
U2OS [15] = test: as above

Row | SMILES | cell viability (Caco-2 [1]; 1 nM) | cell viability (Caco-2 [1]; 10 nM) | cell viability (Caco-2 [1]; 100 nM) | cell viability (Caco-2 [1]; 1000 nM) | cell viability (Caco-2 [1]; 10000 nM) | cell viability (Calu-3 [2]; 1 nM) | cell viability (Calu-3 [2]; 10 nM) | cell viability (Calu-3 [2]; 100 nM) | cell viability (Calu-3 [2]; 1000 nM) | cell viability (Calu-3 [2]; 10000 nM) | cell viability (HepG2 [3]; 1 nM) | cell viability (HepG2 [3]; 10 nM) | cell viability (HepG2 [3]; 100 nM) | cell viability (HepG2 [3]; 1000 nM) | cell viability (HepG2 [3]; 10000 nM) | cell viability (Vero E6 [4]; 1 nM) | cell viability (Vero E6 [4]; 10 nM) | cell viability (Vero E6 [4]; 100 nM) | cell viability (Vero E6 [4]; 1000 nM) | cell viability (Vero E6 [4]; 10000 nM) | cell viability (U2OS [5]; 1 nM) | cell viability (U2OS [5]; 10 nM) | cell viability (U2OS [5]; 100 nM) | cell viability (U2OS [5]; 1000 nM) | cell viability (U2OS [5]; 10000 nM) | drug sensitivity score (Caco-2 [6]) | drug sensitivity score (Calu-3 [7]) | drug sensitivity score (HepG2 [8]) | drug sensitivity score (Vero E6 [9]) | drug sensitivity score (U2OS [10]) | relative viability EC50 (Caco-2 [11]) | relative viability EC50 (Calu-3 [12]) | relative viability EC50 (HepG2 [13]) | relative viability EC50 (Vero E6 [14]) | relative viability EC50 (U2OS [15])
1 | CCC(=O)O[C@@H](O[P@@](=O)(CCCCc1ccccc1)CC(=O)N1C[C@H](C2CCCCC2)C[C@H]1C(=O)O)C(C)C [fosinopril] | 100% | 95.3% | 99.3% | 92.7% | 103% | 98.3% | 89.7% | 103% | 85.7% | 100% | 103% | 92.7% | 93.7% | 103% | 97.9% | 99.8% | 97.8% | 92.7% | 95.4% | 99.6% | 103% | 97.2% | 105% | 97.7% | 104% | 0 | 0 | 0 | 0 | 0 | > 10 µM | > 10 µM | > 10 µM | > 10 µM | > 10 µM
2 | CN(CCOc1ccc(-c2ccc3c(c2)OCO3)cc1C(C)(C)C)CC(=O)O | 104% | 102% | 94.2% | 92.8% | 89.8% | 100% | 95.1% | 93.9% | 103% | 107% | 95.8% | 89.7% | 110% | 92.9% | 110% | 99.3% | 97.6% | 97.6% | 95.3% | 98.7% | 93.9% | 98.5% | 97.5% | 101% | 100% | 0 | 0 | 0 | 0 | 0 | > 10 µM | > 10 µM | > 10 µM | > 10 µM | > 10 µM
3 | Cc1ccc(NC(=O)c2cccc(N(C)C)c2)cc1NC(=O)c1ccc(O)cc1 | 101% | 102% | 89% | 93.6% | 81.8% | 104% | 104% | 91.7% | 94.7% | 99% | 98.8% | 97.7% | 105% | 94.3% | 84.1% | 101% | 99.8% | 98.4% | 101% | 102% | 104% | 100% | 99.5% | 97% | 104% | 0.8 | 0 | 0.8 | 0 | 0 | > 10 µM | > 10 µM | > 10 µM | > 10 µM | > 10 µM
4 | CN1C(=O)c2c(nn(Cc3ccc(-c4cccc(F)n4)cc3)c2Nc2ccccc2)N2C1=N[C@@H]1CCC[C@@H]12 [ITI214] | 87.3% | 104% | 97.4% | 94.8% | 117% | 105% | 87% | 100% | 101% | 92.8% | 105% | 96.7% | 97.9% | 102% | 79.7% | 110% | 113% | 99.6% | 104% | 97.2% | 106% | 102% | 102% | 96.7% | 89.3% | 0 | 0 | 0.5 | 0 | 0 | > 10 µM | > 10 µM | > 10 µM | > 10 µM | > 10 µM
5 | Cc1noc(NS(=O)(=O)c2ccc(N)cc2)c1C [sulfafurazole] | 95.7% | 94.2% | 96.6% | 94% | 103% | 96.2% | 92.7% | 105% | 107% | 98.1% | 93% | 94.3% | 90.6% | 102% | 100% | 101% | 96.6% | 98.6% | 99.2% | 98.7% | 100% | 96.5% | 99.5% | 96% | 101% | 0 | 0 | 0 | 0 | 0 | > 10 µM | > 10 µM | > 10 µM | > 10 µM | > 10 µM

— the supplement of paper PMC13380429
